Data set [1] in a line: In vitro metabolic study in human liver microsome incubation system. Conditions: for Concentration of the compound to be tested (parent): human liver microsomes 0.5 mg protein/mL, NADPH, 37° C. The method, then:
Instruments, conditions and parameters: liquid chromatography-mass spectrometry system (LC/MS/MS, Shimadzu LC 30-AD, MS API 4000); the chromatographic column was ACQUITY UPLC BEH C18 column (1.7 μm 2.1×50 mm Column, Part No. 186002350); the mobile phase was acetonitrile-water-formic acid (50:50:0.1); the flow rate was 0.7 mL/min; the injection volume was 5μL; the column temperature was room temperature. An electrospray ionization (ESI) source was adopted with a spray voltage of 4.8 KV; the capillary temperature (TEM) was 300° C.; the sheath gas was N2, and the flow rate was 10 psi; the auxiliary gas was N2, and the flow rate was 1 psi; the collision-induced dissociation (CID) gas was Ar, and the pressure was 1.5 mTorr. The mass spectrometry scan mode was mass spectrometry multiple reaction monitoring (MRM), and the positive ion mode was used for detection.
About 10 mg of each of the samples to be tested was precisely weighed out and dissolved in 0.1 mL of DMSO, and the solution was stepwise diluted with purified water to prepare 10 μM and 1 μM standard stock solutions. In an ice bath, the detection incubation system was prepared according to Table 3. NADPH was added to the incubation system (see Table 4 for its composition) to start a reaction, and 50 μL of the resulting mixture was taken immediately and added to 150 μL of acetonitrile as a time-zero sample and a 1 μM standard curve sample. Another 1 μM standard stock solution was added to the incubation system, and 50 μL of the resulting mixture was taken immediately and added to 150 μL of acetonitrile as a 0.1 μM standard curve sample. […] Each sample was shaken and centrifuged at 18,000 g for 10 min, and a sample of the supernatant was taken and injected for LC/MS/MS analysis.
Background: Liver microsomes are vesicles of endoplasmic reticulum, rich in cytochrome P450 enzymes.

The target of the next data set is hERG potassium channel (Homo sapiens, UniProt Q12809). Kind of data set: Manual patch clamp assay of hERG potassium channel current in CHO-hERG cells. For orientation: In patch-clamp work, channel activity is measured electrically.
Data set [2] in a line: Saturation solubility by external standard HPLC method. It counts as physicochemical. Conditions: thermodynamic from solid; purified water, 25° C., stirred 24 h. How it is done: Preparation of an external standard solution: 50 mg of a compound to be tested was precisely weighed out, added to a 10 mL volumetric flask, and dissolved in a proper amount of purified water by ultrasonication. The solution was diluted to volume and mixed well to give an external standard solution with a concentration of 5.0 mg/mL.
The solution was stirred for dissolution for 24 h at 25° C. and centrifuged. The supernatant was taken and filtered through a 0.45 μm filter membrane, and the filtrate was collected. 1 mL of the filtrate described above was precisely measured out and added to a 5 mL measuring flask. Purified water was added to dilute the filtrate to volume, and the solution was mixed well to give a solution to be tested.
2. Determination of Saturation Solubility by External Standard Method
Chromatographic Conditions
Chromatographic column: Waters XBridge C8 3.5 μm 4.6×100 mm NRT2019-21#, column temperature: 45° C., detection wavelength: 205 nm;
Mobile phase A: a 10 mM/L (NH4)2HPO4 solution, mobile phase B: acetonitrile, isocratic elution A:B=40:60, flow rate: 1.0 mL/min;
Injection volume: 10 μL, run time: 10 min.
Purified water was used as a blank control solution, and the peak areas of the external standard solution and the standard solution were measured using a high performance liquid chromatograph with a UV detector and denoted as Aexternal standard and Ato be tested, respectively.

For data set [3] the following is noted: in the human body; cited from earlier work.

Where a name gives a salt, the structure may show the parent alone.

Sequence of hERG potassium channel (Q12809 whole entry): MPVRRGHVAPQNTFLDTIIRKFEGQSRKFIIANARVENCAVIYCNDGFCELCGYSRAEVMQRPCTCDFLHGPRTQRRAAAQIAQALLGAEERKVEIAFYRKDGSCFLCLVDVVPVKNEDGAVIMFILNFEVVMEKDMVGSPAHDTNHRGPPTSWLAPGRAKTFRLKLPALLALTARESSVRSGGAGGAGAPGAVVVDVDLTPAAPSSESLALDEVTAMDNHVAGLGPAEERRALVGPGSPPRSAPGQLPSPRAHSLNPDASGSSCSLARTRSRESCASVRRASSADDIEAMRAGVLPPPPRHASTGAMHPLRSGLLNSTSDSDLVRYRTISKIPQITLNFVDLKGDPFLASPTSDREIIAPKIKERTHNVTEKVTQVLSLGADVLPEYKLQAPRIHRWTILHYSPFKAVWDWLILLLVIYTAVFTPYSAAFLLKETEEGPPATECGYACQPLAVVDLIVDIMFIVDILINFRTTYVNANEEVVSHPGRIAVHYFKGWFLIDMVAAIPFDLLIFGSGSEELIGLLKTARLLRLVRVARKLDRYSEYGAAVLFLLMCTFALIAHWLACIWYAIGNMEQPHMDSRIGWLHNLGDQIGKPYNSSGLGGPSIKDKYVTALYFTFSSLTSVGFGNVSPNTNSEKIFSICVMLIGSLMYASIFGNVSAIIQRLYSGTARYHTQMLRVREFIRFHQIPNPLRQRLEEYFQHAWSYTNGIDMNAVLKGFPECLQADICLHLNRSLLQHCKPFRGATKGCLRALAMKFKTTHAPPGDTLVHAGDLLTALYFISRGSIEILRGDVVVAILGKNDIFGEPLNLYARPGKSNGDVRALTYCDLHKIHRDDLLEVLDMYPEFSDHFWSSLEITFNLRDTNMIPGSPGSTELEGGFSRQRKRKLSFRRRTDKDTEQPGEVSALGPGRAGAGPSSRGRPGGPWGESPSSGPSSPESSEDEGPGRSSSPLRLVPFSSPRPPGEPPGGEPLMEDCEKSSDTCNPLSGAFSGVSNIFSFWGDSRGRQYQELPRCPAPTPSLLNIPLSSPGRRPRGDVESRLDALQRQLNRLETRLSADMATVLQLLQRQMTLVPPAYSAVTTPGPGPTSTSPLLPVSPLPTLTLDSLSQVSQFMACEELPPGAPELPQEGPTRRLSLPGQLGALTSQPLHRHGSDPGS
Protocol for hERG potassium channel: The manual patch clamp method was used to measure the effect of the compounds on hERG potassium channel current stably expressed in Chinese hamster ovary cells.
Manual patch clamp assay method:
CHO-hERG cells in the exponential growth phase were collected and resuspended in ECS (extracellular solution) for later use. The cells were seeded in a cell recording chamber, and the chamber was placed on the stage of an inverted microscope. One of the cells in the tank was randomly selected for testing. The perfusion system was fixed onto the stage of the inverted microscope, and the cell was perfused continuously with ECS. […]
The clamping voltage was −80 mV. […] The peak value of the tail current was measured and used for analysis. […] In the initial stage of recording the perfusion with the solvent control working solution, the peak value of the tail current was monitored until 3 or more scanning curves were stabilized, and then perfusion was performed with the test sample/positive control working solution to be tested until the inhibitory effect of the test sample/positive control working solution on the peak value of the hERG current reached a stable state.
The hERG current was recorded under the whole cell patch clamp technology at room temperature. […] Data were collected and recorded by Patchmaster Pro software and processed using Origin 8E software, and hERG IC50 values were calculated.

In general, IC50 refers to the concentration that inhibits the measured activity by half. Read a high IC50 as a need for much substance. For the compound `CC(=O)[C@H]1CC[C@H]2[C@@H]3CC[C@H]4C[C@H](OC(=O)[C@@H](N)C(C)C)CC[C@]4(C)[C@H]3CC[C@]12C` [Comparative compound 1], the “Concentration of the compound to be tested (parent)” value (shortened to “Concentration of the compound”) in data set [1] (incubation time 0 min) is 1000 nM; in data set [1] (incubation time 5 min) it was 801 nM; in data set [1] (incubation time 15 min), 680 nM; in data set [1] (incubation time 30 min), 484 nM; in data set [1] (incubation time 45 min) it was 306 nM; in data set [1] (incubation time 60 min), 256 nM. Further, the “concentration of allopregnanolone resulting from metabolism reaching a stable level (in words)” value in data set [1] (liver microsome system) was “unable to achieve a stable level”. This compound also yielded an IC50 on hERG potassium channel of 770 nM.

For orientation: solubility means how much of the substance goes into solution per volume. Lower therefore signals a poorly soluble substance. In data set [2], `[2H]C(N)(C(=O)O[C@@H]1CC[C@@]2(C)[C@@H](CC[C@@H]3[C@@H]2CC[C@]2(C)[C@@H](C(C)=O)CC[C@@H]32)C1)C(C)C` (stereo partly drawn) [Compound 3 hydrochloride] yielded a solubility at 24 h of 19 mg/mL.

`CC(=O)[C@H]1CC[C@H]2[C@@H]3CC[C@H]4C[C@H](OC(=O)[C@@H](N)C(C)C)CC[C@]4(C)[C@H]3CC[C@]12C` [Comparative compound 1 hydrochloride]: the solubility at 24 h in data set [2] is 29.9 mg/mL. Compared with the last compound, the solubility at 24 h is about 1.6-fold higher.

Turning to `C[C@]12CC[C@H]3[C@@H](CCC4=CC(=O)CC[C@@]43C)[C@@H]1CC[C@@H]2O` [Testosterone, testosterone], the “Concentration of the compound” value was determined as 1000 nM in data set [1] (incubation time 0 min); 677 nM in data set [1] (incubation time 5 min); 379 nM in data set [1] (incubation time 15 min); 155 nM in data set [1] (incubation time 30 min); 63 nM in data set [1] (incubation time 45 min); 44 nM in data set [1] (incubation time 60 min).

Consider `[2H]C(C)(C)[C@H](N)C(=O)O[C@@H]1CC[C@@]2(C)[C@@H](CC[C@@H]3[C@@H]2CC[C@]2(C)[C@@H](C(C)=O)CC[C@@H]32)C1` [Compound 1], for which the “Concentration of the compound” value in data set [1] (incubation time 0 min) came out at 1000 nM; in data set [1] (incubation time 5 min), 956 nM; in data set [1] (incubation time 15 min), 874 nM; in data set [1] (incubation time 30 min), 575 nM; in data set [1] (incubation time 45 min) it was 423 nM; in data set [1] (incubation time 60 min), 352 nM. The same compound gave an IC50 against hERG potassium channel of 1930 nM.

As for `O=C(O)Cc1ccccc1Nc1c(Cl)cccc1Cl` [Diclofenac, diclofenac], the “Concentration of the compound” value was 1000 nM in data set [1] (incubation time 0 min); 374 nM in data set [1] (incubation time 5 min); 77 nM in data set [1] (incubation time 15 min); 8 nM in data set [1] (incubation time 30 min); 1 nM in data set [1] (incubation time 45 min); 1 nM in data set [1] (incubation time 60 min).

`[2H]C(C)(C)[C@H](N)C(=O)O[C@@H]1CC[C@@]2(C)[C@@H](CC[C@@H]3[C@@H]2CC[C@]2(C)[C@@H](C(C)=O)CC[C@@H]32)C1` [Compound 1 hydrochloride] registered a solubility at 24 h in data set [2] of 31.2 mg/mL.

Compound `CC(=O)[C@H]1CC[C@H]2[C@@H]3CC[C@H]4C[C@H](O)CC[C@]4(C)[C@H]3CC[C@]12C` [Allopregnanolone, 3α-OH-5α-pregnan-20-one] registered a solubility at 24 h in data set [2] below 0.01 mg/mL. Besides, the “Concentration of the compound” value in data set [1] (incubation time 0 min) is 1000 nM; in data set [1] (incubation time 5 min), 626 nM; in data set [1] (incubation time 15 min), 414 nM; in data set [1] (incubation time 30 min), 259 nM; in data set [1] (incubation time 45 min) it was 150 nM; in data set [1] (incubation time 60 min), 119 nM. Moreover, the plasma half-life entry in data set [3] is “about 45 minutes”.

Compound `[2H]C([2H])([2H])C([C@H](N)C(=O)O[C@@H]1CC[C@@]2(C)[C@@H](CC[C@@H]3[C@@H]2CC[C@]2(C)[C@@H](C(C)=O)CC[C@@H]32)C1)C([2H])([2H])[2H]` [Compound 2 hydrochloride] displayed a solubility at 24 h in data set [2] of 36.1 mg/mL.
